# According to patent publication US20240269145A1, “USE OF INDOLE COMPOUND AS INHIBITORS OF FERROPTOSIS” (MITOIMMUNE THERAPEUTICS INC., priority 2023, published 2024):
# Experiments:
# Format in all cases: cell-based
# MLE-12 cells [1] = test: Cytosolic iron ion accumulation (FerroOrange, flow cytometry) after RSL3; details: MLE-12, 1 μM RSL3, 8 hours
# Experimental: (§1) To confirm the inhibitory effect against cytosolic iron ion accumulation in lung epithelial cells, 2×10^5 MLE-12 cells were dispensed into each well of a 12-well plate and cultured for 18 to 24 hours. Each well was treated with Example Compound 1 and ferrostatin-1, which were diluted so that their final concentration became 0.01, 0.1, 1, and 10 μM, and culture was performed for 15 minutes. Afterwards, the cells were treated so that the final concentration of RSL3 became 1 μM, and cultured for 8 hours. To confirm the inhibitory effect against cytosolic iron ion accumulation, FerroOrange [DOJINDO; F374] was used. According to the manufacturer's experimental method, FerroOrange was diluted in the cell culture medium so that the final concentration became 1 μM, and the cells were treated therewith and allowed to react for 30 minutes to perform fluorescent staining. The MLE-12 cells fluorescently stained with FerroOrange were detached from the 12-well plate using 0.25% Trypsin-EDTA and transferred to a microtube, and the fluorescence (excitation/absorption 580 nm/543 nm) was measured using BD FACSLyric™ to calculate the rate of change compared to the control group (RSL3 untreated group).
# MLE-12 cells [2] = test: Mitochondrial iron ion accumulation (Mito-FerroGreen, flow cytometry) after RSL3; details: MLE-12, 1 μM RSL3, 8 hours
# Experimental: as §1, with “mitochondrial” for “cytosolic”, “Mito-FerroGreen” for “FerroOrange”, “M489]” for “F374]”, “505 nm/535” for “580 nm/543”, “group.” for “group (RSL3 untreated group).”
# MLE-12 cells [3] = test: Mitochondrial ROS (MitoSOX) after RSL3; details: MLE-12, 1 μM RSL3, 2 hours
# Experimental: To confirm the protective effect against mitochondrial reactive oxygen species in lung epithelial cells, 2×10^5 MLE-12 cells were dispensed into each well of a 12-well plate and cultured for 18 to 24 hours. Each well was treated with Example Compound 1 and ferrostatin-1, which were diluted so that their final concentration became 0.01, 0.1, 1, and 10 μM, and culture was performed for 15 minutes. Afterwards, the cells were treated so that the final concentration of RSL3 became 1 μM, and cultured for 2 hours. To confirm the inhibitory effect against mitochondrial reactive oxygen species, MitoSOX™ mitochondrial superoxide indicators (mitochondrial oxidative stress indicator) (MitoSOX) [Invitrogen™; C6827] was used. According to the manufacturer's experimental method, MitoSOX was diluted in the cell culture medium so that the final concentration became 5 μM, and the cells were treated therewith and allowed to react for 30 minutes to perform fluorescent staining. The MLE-12 cells fluorescently stained with MitoSOX were detached from the 12-well plate using 0.25% Trypsin-EDTA and transferred to a microtube, and the fluorescence (excitation/absorption ˜396 nm/610 nm) was measured using BD FACSLyric™ to calculate the rate of change compared to the control group (RSL3 untreated group).
# NIH/3T3 cells = test: Cytosolic lipid ROS after erastin, Experimental Example 3-3; details: NIH/3T3, erastin 3 μM, 6 hr; tested 0.1, 1, 10 μM
# Experimental: [The source words this procedure for another cell line and says it was used here with some conditions changed.] Experimental Example 3-1: To confirm the protective effect against cytosolic lipid reactive oxygen species in lung epithelial cells, 2×10^5 MLE-12 cells were dispensed into each well of a 12-well plate and cultured for 18 to 24 hours. Each well was treated with Example Compound 1 and ferrostatin-1, which were diluted so that their final concentration became 0.01, 0.1, 1, and 10 μM, and culture was performed for 15 minutes. Afterwards, the cells were treated so that the final concentration of RSL3 became 1 μM, and cultured for 2 hours. To confirm the inhibitory effect against cytosolic lipid reactive oxygen species, BODIPY™ 581/591 C11 (lipid peroxidation sensor) [Invitrogen™; D3861] was used. According to the manufacturer's experimental method, BODIPY™ 581/591 C11 was diluted in the cell culture medium so that the final concentration became 5 μM, and the cells were treated therewith and allowed to react for 30 minutes to perform fluorescent staining. The MLE-12 cells fluorescently stained with BODIPY™ 581/591 C11 were detached from the 12-well plate using 0.25% Trypsin-EDTA and transferred to a microtube, and the fluorescence (excitation/absorption 500 to 650 nm/510 to 665 nm) was measured using BD FACSLyric™ to calculate the rate of change compared to the control group. […]
# H9C2 cells = test: Cytosolic iron ion accumulation (FerroOrange, images) after erastin; details: H9C2, erastin 1 μM, 7 hours; Example Compound 1 1 μM, DFO 10 or 100 μM
# Experimental: (§2) To confirm the inhibitory effect against cytosolic iron ion accumulation in adrenal medulla cells and cardiac cells, 3×10^5 PC-12 cells and H9C2 cells were each dispensed into a 35 mm confocal dish and cultured for 18 to 36 hours. Each well was treated with the Example Compound 1, which was diluted so that the final concentration became 1 μM, and with DFO, which was diluted so that the final concentration became 10 µM and 100 μM, and culture was performed for 20 to 30 minutes. Afterwards, the PC-12 cells and H9C2 cells were each treated with RSL3 and erastin so that their final concentration became 0.3 µM and 1 μM, respectively, and cultured for 1 hour and 7 hours. To confirm the inhibitory effect against cytosolic iron ion accumulation, FerroOrange [DOJINDO; F374] was used. According to the manufacturer's experimental method, FerroOrange was diluted in the cell culture medium so that the final concentration became 1 μM, and the cells were treated therewith. […] The cells fluorescently stained with FerroOrange were observed using a fluorescence microscope [Carl Zeiss; Axio Observer 7] to investigate the change in fluorescence (excitation/absorption 580 nm/543 nm) compared to the control group (RSL3 and erastin untreated group).
# PC-12 cells = test: Cytosolic iron ion accumulation (FerroOrange, images) after RSL3; details: PC-12, 0.3 μM RSL3, 1 hour; Example Compound 1 1 μM, DFO 10 or 100 μM
# Experimental: as §2
SMILES,concentration at which cytosolic iron ion accumulation was significantly decreased (MLE-12 cells [1]) [µM],concentration at which mitochondrial iron ion accumulation was significantly decreased (MLE-12 cells [2]) [µM],concentration at which mitochondrial reactive oxygen species were significantly decreased (MLE-12 cells [3]) [µM],concentration at which cytosolic lipid reactive oxygen species were decreased (NIH/3T3 cells) [µM],cytosolic iron ion accumulation (images) (H9C2 cells),cytosolic iron ion accumulation (images) (PC-12 cells)
"CCOC(=O)c1ccc(NC2CCCCC2)c(N)c1 [Fer-1, ferrostatin-1, reference compound]",1,0.1,0.1,10,,
"O=S1(=O)CCN(Cc2cc(NC3CCOCC3)c3[nH]c(-c4ccccc4)cc3c2)CC1 [Example 1, 5-[(1,1-dioxido-4-thiomorpholinyl)methyl]-2-phenyl-N-(tetrahydro-2H-pyran-4-yl)-1H-indole-7-amine]",0.1,0.01,0.1,0.1,decrease was confirmed,decrease was confirmed
